Measurements as given in ChEMBL document CHEMBL1201862, “PubChem BioAssay data set” (2004).
Each block holds one compound with its values, some of them ahead of it. The source made the active and inactive calls.

Key:
[1] = control 3'UTR Renilla luciferase suppression, dose response, counter-screen for Shn3 inhibitor project, cell-based, Clone20-Shn3RL, cherry-picked (AID 624133); format: functional
[2] = Shn3 3'UTR reporter inhibitors, dose response, cell-based, Clone20 osteoblasts, firefly luciferase, cherry-picked (AID 624132); format: functional;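 also: firefly luciferase luminescence from reporter carrying the Shn3 3'UTR in osteoblasts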
[3] = HEp-2 cell cytotoxicity, dose response, cytotoxicity control for RSV inhibitor project, HTS (AID 2410); format: functional; conditions: human respiratory syncytial virus
[4] = target: T1, Corticotropin-releasing factor receptor 2/Corticotropin-releasing factor-binding protein (Homo sapiens, UniProt P24387+Q13324); assay: Dose Response confirmation of uHTS hits for small molecule antagonists of the CRF-binding protein and CRF-R2 receptor complex.; format: functional; conditions: read-out: IC50_Mean
T1 sequence (Q13324 whole entry): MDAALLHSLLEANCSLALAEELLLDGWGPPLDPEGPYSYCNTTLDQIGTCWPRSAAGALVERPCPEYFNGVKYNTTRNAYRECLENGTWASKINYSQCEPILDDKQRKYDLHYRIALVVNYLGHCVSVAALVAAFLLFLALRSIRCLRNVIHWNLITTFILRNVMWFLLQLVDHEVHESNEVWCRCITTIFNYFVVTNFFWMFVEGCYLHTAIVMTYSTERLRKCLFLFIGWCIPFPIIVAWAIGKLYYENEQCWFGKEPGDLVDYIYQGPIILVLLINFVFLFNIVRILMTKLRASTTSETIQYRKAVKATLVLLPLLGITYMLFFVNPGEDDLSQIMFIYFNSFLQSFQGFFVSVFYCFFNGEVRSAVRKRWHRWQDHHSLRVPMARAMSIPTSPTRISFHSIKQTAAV
T1 sequence (P24387 whole entry): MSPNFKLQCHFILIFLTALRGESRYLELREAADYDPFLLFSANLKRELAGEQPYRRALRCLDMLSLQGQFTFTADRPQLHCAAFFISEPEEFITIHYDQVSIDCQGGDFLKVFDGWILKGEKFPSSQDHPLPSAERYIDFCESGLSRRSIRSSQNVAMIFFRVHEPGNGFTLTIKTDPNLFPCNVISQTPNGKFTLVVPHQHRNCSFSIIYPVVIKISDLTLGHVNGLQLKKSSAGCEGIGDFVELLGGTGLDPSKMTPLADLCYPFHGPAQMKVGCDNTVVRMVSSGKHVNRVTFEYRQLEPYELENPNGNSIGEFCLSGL

[5] = target: T1, Corticotropin-releasing factor receptor 2/Corticotropin-releasing factor-binding protein; assay: activators of CRF receptor 2 with binding protein – uHTS hits, confirmation (AID 602473); format: functional; conditions: read-out: EC50_Mean
[6] = target: Luciferin 4-monooxygenase (Photinus pyralis, UniProt P08659); assay: firefly luciferase enzyme inhibitors, dose response, biochemical, luminescence (AID 1891)
[7] = C. albicans growth with fluconazole, confirmation, fluorescence, retest (AID 2467); format: functional, cell-based
[8] = Luminescence Cell-Based Dose Confirmation HTS to Identify Inhibitors of Platelet Dense Granule Release. [Related pubchem assays: 1663 (Primary HTS), 1678 (Summary of Project)]; format: functional
[9] = NIH-3T3 fibroblast cytotoxicity, dose response, cytotoxicity control, cell-based, fluorescence, Alamar Blue, secondary assay (AID 2327); format: functional;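 also: NIH-3T3 mouse fibroblasts cultured with fluconazole at 8 µg/mL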
Cytochrome P450 2C9 = Cytochrome P450 2C9 (Homo sapiens, UniProt P11712)
Cytochrome P450 1A2 = target: T2, Cytochrome P450 1A2 (Homo sapiens, UniProt P05177);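 also: PubChem cytochrome P450 panel assay, CYP1A2 panel member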
T2 sequence (P05177 whole entry): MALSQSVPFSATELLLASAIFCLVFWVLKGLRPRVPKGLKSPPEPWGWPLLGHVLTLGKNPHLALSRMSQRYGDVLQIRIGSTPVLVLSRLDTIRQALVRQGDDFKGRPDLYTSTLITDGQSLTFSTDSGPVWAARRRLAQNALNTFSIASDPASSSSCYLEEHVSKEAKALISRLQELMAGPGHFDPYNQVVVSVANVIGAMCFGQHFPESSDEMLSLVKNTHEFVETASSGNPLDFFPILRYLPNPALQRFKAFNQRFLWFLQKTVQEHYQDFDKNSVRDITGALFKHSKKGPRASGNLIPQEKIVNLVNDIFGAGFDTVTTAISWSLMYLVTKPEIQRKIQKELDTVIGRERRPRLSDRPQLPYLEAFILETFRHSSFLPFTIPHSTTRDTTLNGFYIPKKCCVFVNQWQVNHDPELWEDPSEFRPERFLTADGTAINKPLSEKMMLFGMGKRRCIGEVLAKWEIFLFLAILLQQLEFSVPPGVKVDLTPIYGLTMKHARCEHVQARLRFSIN

Cytochrome P450 3A4 = Cytochrome P450 3A4 (Homo sapiens, UniProt P08684);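 also: CYP3A4 tested as one member of a cytochrome P450 panel screen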
[10] = target: FAD-linked sulfhydryl oxidase ALR (Homo sapiens, UniProt P55789); assay: inhibitors of human ALR sulfhydryl oxidase, dose response, biochemical, H2O2 detection, luminescence, cherry-pick (AID 493248)
Cytochrome P450 2C19 = Cytochrome P450 2C19 (Homo sapiens, UniProt P33261); assay: Cytochrome panel assay with activity outcomes. Panel member name: p450-cyp2c19 Compounds with AC50 equal or less than 10 uM are considered active; format: functional; conditions: read-out: AC50
Cytochrome P450 2D6 = Cytochrome P450 2D6 (Homo sapiens, UniProt P10635);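 also: CYP2D6 member of a cytochrome P450 panel assay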
Chain of Cytochrome P450 2D6 (P10635 whole entry): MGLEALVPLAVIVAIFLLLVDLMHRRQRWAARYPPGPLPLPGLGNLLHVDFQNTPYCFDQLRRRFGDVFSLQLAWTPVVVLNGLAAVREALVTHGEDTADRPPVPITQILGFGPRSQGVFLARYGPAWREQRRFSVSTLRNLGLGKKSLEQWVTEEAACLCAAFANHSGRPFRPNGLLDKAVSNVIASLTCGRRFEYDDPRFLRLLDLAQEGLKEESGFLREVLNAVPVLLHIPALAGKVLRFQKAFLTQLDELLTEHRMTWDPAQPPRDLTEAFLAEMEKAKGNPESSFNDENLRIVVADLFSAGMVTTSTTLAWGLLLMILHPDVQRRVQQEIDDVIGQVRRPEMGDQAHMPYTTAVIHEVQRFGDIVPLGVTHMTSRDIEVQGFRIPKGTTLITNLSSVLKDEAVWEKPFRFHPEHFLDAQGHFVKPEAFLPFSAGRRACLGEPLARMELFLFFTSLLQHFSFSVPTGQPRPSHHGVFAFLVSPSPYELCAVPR

Chain of Cytochrome P450 3A4 (P08684 whole entry): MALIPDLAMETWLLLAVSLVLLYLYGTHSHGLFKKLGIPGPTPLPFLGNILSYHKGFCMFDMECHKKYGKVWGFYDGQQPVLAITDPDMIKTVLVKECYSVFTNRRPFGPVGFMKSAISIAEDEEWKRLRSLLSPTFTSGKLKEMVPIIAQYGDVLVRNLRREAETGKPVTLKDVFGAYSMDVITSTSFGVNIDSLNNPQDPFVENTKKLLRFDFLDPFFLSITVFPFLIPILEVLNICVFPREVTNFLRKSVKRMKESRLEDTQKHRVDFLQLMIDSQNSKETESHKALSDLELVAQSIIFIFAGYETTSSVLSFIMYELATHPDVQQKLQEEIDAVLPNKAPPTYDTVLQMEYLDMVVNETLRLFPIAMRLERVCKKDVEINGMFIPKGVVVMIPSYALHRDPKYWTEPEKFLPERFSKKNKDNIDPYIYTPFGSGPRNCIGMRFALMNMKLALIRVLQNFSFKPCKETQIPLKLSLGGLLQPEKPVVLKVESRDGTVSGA
Chain of FAD-linked sulfhydryl oxidase ALR (P55789 whole entry): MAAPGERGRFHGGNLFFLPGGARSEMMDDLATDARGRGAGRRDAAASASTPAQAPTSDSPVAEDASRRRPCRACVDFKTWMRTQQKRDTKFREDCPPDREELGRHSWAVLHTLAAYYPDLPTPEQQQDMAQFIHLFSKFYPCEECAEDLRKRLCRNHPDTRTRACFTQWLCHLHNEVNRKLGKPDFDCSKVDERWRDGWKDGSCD
Chain of Cytochrome P450 2C9 (P11712 whole entry): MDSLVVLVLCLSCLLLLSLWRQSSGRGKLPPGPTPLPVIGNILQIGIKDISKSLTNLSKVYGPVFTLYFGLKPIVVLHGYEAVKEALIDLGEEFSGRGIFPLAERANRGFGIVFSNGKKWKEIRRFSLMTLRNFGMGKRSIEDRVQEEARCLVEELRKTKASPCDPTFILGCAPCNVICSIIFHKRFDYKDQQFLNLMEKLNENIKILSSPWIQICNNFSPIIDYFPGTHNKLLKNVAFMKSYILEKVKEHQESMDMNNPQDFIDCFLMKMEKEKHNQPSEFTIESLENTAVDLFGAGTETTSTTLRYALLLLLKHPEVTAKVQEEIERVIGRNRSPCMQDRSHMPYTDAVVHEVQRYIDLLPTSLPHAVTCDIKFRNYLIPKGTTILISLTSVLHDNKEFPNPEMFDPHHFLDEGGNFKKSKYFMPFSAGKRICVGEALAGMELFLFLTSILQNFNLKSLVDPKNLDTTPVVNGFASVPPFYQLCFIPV
Chain of Cytochrome P450 2C19 (P33261 whole entry): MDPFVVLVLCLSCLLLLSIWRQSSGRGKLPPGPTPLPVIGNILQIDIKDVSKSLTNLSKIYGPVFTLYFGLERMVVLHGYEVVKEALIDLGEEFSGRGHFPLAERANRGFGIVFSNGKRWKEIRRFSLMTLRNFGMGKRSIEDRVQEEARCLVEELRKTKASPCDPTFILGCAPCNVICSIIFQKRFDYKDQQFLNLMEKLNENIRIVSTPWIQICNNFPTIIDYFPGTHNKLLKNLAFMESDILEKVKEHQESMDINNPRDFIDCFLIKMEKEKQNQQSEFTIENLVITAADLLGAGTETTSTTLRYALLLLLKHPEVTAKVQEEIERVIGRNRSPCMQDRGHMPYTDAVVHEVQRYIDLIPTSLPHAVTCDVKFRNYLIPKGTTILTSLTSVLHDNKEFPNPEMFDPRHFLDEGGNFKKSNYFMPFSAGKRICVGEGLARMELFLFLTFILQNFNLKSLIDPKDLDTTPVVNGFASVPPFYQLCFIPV
Chain of Luciferin 4-monooxygenase (P08659 whole entry): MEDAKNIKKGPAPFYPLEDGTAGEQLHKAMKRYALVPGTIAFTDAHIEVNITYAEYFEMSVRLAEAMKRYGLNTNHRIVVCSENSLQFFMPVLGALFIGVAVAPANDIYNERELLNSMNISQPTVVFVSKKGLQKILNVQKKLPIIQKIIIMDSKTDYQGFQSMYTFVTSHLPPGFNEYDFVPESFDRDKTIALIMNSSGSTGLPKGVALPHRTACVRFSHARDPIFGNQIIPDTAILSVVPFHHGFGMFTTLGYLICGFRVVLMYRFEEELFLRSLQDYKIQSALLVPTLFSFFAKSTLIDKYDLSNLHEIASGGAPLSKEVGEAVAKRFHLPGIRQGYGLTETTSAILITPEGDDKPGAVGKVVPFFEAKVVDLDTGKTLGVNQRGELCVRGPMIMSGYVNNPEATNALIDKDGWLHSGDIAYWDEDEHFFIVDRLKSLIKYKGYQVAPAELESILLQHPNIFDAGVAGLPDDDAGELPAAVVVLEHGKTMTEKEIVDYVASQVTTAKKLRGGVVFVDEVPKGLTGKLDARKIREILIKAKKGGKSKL

Compound: CCc1c(C)nc2cc(-c3ccc(OC)c(OC)c3)nn2c1NCC1CC1
AC50 [1]: 5.44 µM (active)
AC50 [2]: 5.11 µM (active)
CC50 [3]: 13.7 µM (active)

Compound: CCCOc1cccc(-c2cc(C(=O)NN=C(S)NCC)c3ccccc3n2)c1
EC50 [6]: 1.41 µM (active)
EC50 [7]: > 38 µM (not active)
EC50 [8]: > 112 µM (not active)
EC50 [9]: > 160 µM (inactive)

Compound: O=C(COC(=O)C1CCN(S(=O)(=O)c2ccc3c(c2)OCCO3)CC1)NC1CCS(=O)(=O)C1 (centres undefined)
IC50 [4]: > 47.1 µM (inactive)
EC50 [5]: > 53 µM (inactive)

Compound: CCC(CO)Nc1nc2ccc(Cl)cc2c2ccccc12 (centres undefined)
CC50 [3]: 14.5 µM (active)

Compound: COc1ccccc1C(=O)Nc1ccc(S(=O)(=O)N2CCCCC2c2cccnc2)cc1 (centres undefined)
CC50 [3]: 31.9 µM (active)

Compound: Cc1nc(Nc2ccccc2Cl)sc1C(=O)Nc1ccccc1
EC50 [7]: > 38 µM (not active)
EC50 [9]: 28.6 µM (active)

Compound: CN(Cc1ccccc1)S(=O)(=O)c1ccc(C(=O)Nc2nnc(C3CC3)o2)cc1
EC50 [7]: 1.76 µM (active)
EC50 [9]: > 160 µM (inactive)

Compound: COc1ccc2oc(C(=O)NCCC(C)C)c(C)c2c1
IC50 [4]: > 47.1 µM (inactive)
EC50 [5]: > 53 µM (inactive)

Compound: Nc1ccc(C(=O)c2cccs2)cc1[N+](=O)[O-]
CC50 [3]: 36.8 µM (active)

Compound: CCCn1c(C(C)Nc2nc(-c3ccc(Cl)c([N+](=O)[O-])c3)cs2)nc2ccccc21 (centres undefined)
CC50 [3]: 29.7 µM (active)

Compound: CCOC(=O)c1nnn(-c2nonc2N)c1CN(C)C1CCCCC1
IC50 [4]: > 47.1 µM (inactive)
EC50 [5]: > 53 µM (inactive)

Further lines, results first:

IC50 [4]: > 47.1 µM (inactive)
EC50 [5]: > 53 µM (inactive)
Compound: CCOc1ccc(NC(=O)CSc2ccc3nnc(-c4cccnc4)n3n2)cc1

AC50 (Cytochrome P450 2C9): 12.6 µM (inconclusive)
AC50 (Cytochrome P450 1A2): 39.8 µM (inconclusive)
AC50 (Cytochrome P450 3A4): 3.16 µM (inconclusive)
Compound: O=C(CSc1nncn1-c1ccccc1)Nc1ccc(N2CCOCC2)cc1

AC50 [10]: 4.1 µM (active)
Compound: COc1cccc(N2CCN(CC(=O)NCc3cccs3)CC2)c1

AC50 (Cytochrome P450 2C19): 25.1 µM (inconclusive)
AC50 (Cytochrome P450 2C9): 3.55 µM (inconclusive)
AC50 (Cytochrome P450 2D6): 14.1 µM (inconclusive)
AC50 (Cytochrome P450 3A4): 22.4 µM (inconclusive)
Compound: Cc1ccccc1C(=O)c1c[nH]c(C(=O)NCc2cccs2)c1

AC50 [10]: 10.8 µM (active)
Compound: Cc1ccccc1NC(=O)Cc1nc(CCl)cs1

AC50 [10]: 3.46 µM (active)
Compound: COc1ccc(NCc2nc3ccccc3n2C)cc1

AC50 (Cytochrome P450 2C19): 22.4 µM (inconclusive)
AC50 (Cytochrome P450 3A4): 17.8 µM (inconclusive)
Compound: COc1cc(C(=O)N2CCC(NC(=O)C(Cc3ccc(C(C)C)cc3)NC(C)=O)CC2)cc(OC)c1OC (centres undefined)

IC50 [4]: > 47.1 µM (inactive)
EC50 [5]: > 53 µM (inactive)
Compound: O=C(c1ccccc1)c1nc2ccccc2nc1O

IC50 [4]: > 47.1 µM (inactive)
EC50 [5]: > 53 µM (inactive)
Compound: COc1cccc(NC(=O)C2CCCN(S(=O)(=O)c3ccc(-n4cnnn4)cc3)C2)c1 (centres undefined)
